# Tests used:
# [1] = Cytotoxicity in African green monkey Vero cells; assay type: toxicity, cell-based, Chlorocebus sabaeus
# [2] = Cytotoxicity in HFL1 cells; assay type: toxicity, cell-based; conditions: human
# [3] = Cytotoxicity in mouse L929 cells; assay type: toxicity, cell-based
# [4] = target: Cytochrome P450 2C19 (Homo sapiens, UniProt P33261); assay: Inhibition of CYP2C19 in human liver microsome; assay type: ADME, microsomes
# [5] = test system: Hepatitis B virus; assay: Antiviral activity against HBV in human HepaRG cells assessed as reduction in viral replication; assay type: functional, organism-based
# [6] = Cytotoxicity in human HepaRG cells assessed as reduction in cell viability; assay type: toxicity, cell-based
# [7] = Selectivity index, ratio of CC50 for cytotoxicity in human HepG2-hNTCP cells assessed as reduction in cell viability to EC50 for antiviral activity against HBV in human HepG2-hNTCP cells assessed as reduction in viral replication; assay type: toxicity, cell-based; conditions: read-out: Ratio CC50/EC50
# [8] = Selectivity index, ratio of CC50 for cytotoxicity in human HepaRG cells assessed as reduction in cell viability to EC50 for antiviral activity against HBV in human HepaRG cells assessed as reduction in viral replication; assay type: toxicity, cell-based; conditions: read-out: Ratio CC50/EC50
# [9] = Half life in male mouse at 5 mg/kg, iv; assay type: ADME, organism-based; conditions: in vivo
# [10] = Clearance in male mouse at 5 mg/kg, iv; assay type: ADME, organism-based; conditions: in vivo
# [11] = Tmax in male mouse at 5 mg/kg, po; assay type: ADME, organism-based; conditions: in vivo
# [12] = Half life in male mouse at 5 mg/kg, po; assay type: ADME, organism-based; conditions: in vivo
# [13] = AUC (0 to infinity) in male mouse at 5 mg/kg, po; assay type: ADME, organism-based; conditions: in vivo
# [14] = AUClast in male mouse at 20 mg/kg, po; assay type: ADME, organism-based; conditions: in vivo
# [15] = test system: HepG2; assay: Effect on viral ssDNA level in human HepG2 cells expressing NTCP cells infected with HBV at 1 uM incubated for 6 days by Southern blot analysis; assay type: functional, cell-based; conditions: time 6.0 day
# [16] = test system: Hepatitis B virus; assay: Antiviral activity against HBV infected in human HepG2 cells expressing NTCP assessed as decrease in intracellular HBc level at 1 uM incubated for 6 days by indirect immunofluorescence staining based analysis; assay type: functional, organism-based; conditions: time 6.0 day
# [17] = test system: Hepatitis B virus; assay: Antiviral activity against HBV infected in human HepG2 cells expressing NTCP assessed as ratio of capsid associated HBV DNA level at 1 uM incubated for 6 days by Western blot analysis (reference value: 100 %); assay type: functional; conditions: time 6 day
# Chain of Cytochrome P450 2C19 (P33261 whole entry): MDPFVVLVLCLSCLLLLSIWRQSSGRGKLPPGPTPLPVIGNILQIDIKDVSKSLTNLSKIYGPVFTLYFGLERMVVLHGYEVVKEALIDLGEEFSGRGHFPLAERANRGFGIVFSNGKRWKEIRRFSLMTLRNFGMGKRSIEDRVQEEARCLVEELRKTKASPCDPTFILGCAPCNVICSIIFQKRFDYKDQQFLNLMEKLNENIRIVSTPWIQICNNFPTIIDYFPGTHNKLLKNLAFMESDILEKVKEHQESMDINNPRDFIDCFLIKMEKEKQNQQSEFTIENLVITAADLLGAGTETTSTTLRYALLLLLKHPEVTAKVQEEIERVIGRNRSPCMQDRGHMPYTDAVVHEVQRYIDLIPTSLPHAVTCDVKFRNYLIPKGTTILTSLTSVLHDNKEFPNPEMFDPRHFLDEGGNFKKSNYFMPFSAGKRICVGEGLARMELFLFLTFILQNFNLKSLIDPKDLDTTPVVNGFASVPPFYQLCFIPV
compound,measurement,setting,value
Nc1cc(F)c(S(=O)(=O)NC2COC2)cc1C(=O)Nc1ccc(F)c(C(F)F)c1,IC50,[1],> 100 µM
same,IC50,[2],> 100 µM
same,IC50,[3],> 100 µM
same,IC50,[4],> 100 µM
same,EC50,[5],0.1 µM
same,CC50,[6],> 100 µM
same,selectivity ratio,[7],3160
same,selectivity ratio,[8],> 100
same,half-life,[9],533 min
same,clearance,[10],92.7 mL/min/kg
same,Tmax,[11],15 min
same,half-life,[12],55.2 min
same,AUC(0-inf),[13],570 ng·h/mL
same,AUC(0-t),[14],270 ng·h/mL
same,Activity,[15],No effect
same,Activity,[16],Active; Compound Modestly Decreased Hbc Level
same,Ratio,[17],6%
